Literature values as cited in patent publication US20090082370A1, “Pharmaceutical Combinations of PK Inhibitors and Other Active Agents” (priority 2006, published 2009).

What was measured:
[1] = antitumour agent
[2] = in vivo
PKB = PKB (Homo sapiens, UniProt P31749); settings: read-out: IC50 against PKB
PKA = settings: read-out: IC50 against PKA
PKG = settings: read-out: IC50 against PKG
PKC = settings: read-out: IC50 against PKC
OVCAR-3 tumour cells = settings: at concentrations of 50 and 100 microM
[3] = doses 10 times more than were needed for antitumour activity
[4] = tested on: phospho-AKT in breast cancer cells; settings: both in vitro and in vivo
[5] = tested on: Acute Promyelocytic Leukemia (APL)

Sequence of PKB (P31749 whole entry, species assumed): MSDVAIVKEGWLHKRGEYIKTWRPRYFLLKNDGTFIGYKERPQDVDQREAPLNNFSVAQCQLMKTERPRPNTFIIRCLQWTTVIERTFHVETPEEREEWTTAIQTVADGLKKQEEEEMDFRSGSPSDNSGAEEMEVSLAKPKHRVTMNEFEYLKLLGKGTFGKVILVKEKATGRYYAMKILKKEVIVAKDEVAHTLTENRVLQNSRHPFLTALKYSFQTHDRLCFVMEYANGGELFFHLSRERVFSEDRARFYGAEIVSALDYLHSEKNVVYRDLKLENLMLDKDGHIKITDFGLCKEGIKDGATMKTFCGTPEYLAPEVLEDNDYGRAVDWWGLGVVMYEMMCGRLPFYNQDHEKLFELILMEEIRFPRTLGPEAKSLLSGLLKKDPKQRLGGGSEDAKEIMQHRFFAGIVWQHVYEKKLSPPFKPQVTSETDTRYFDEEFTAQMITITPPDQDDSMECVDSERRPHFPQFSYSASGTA

In the case of CCN[C@H]1CO[C@@H](O[C@H]2[C@H](O[C@H]3C#C/C=C\C#C[C@]4(O)CC(=O)C(NC(=O)OC)=C3/C4=C\CSSSC)O[C@H](C)[C@@H](NO[C@H]3C[C@H](O)[C@H](SC(=O)c4c(C)c(I)c(O[C@@H]5O[C@@H](C)[C@H](O)[C@@H](OC)[C@H]5O)c(OC)c4OC)[C@@H](C)O3)[C@@H]2O)C[C@@H]1OC [Calicheamicin], the “potency relative to adriamycin” value [1] is given as “over 1,000 times”.

For CCCCCCCCCCCCCCCCCCOP(=O)([O-])OC1CC[N+](C)(C)CC1 [KRX-0401], the half-life [2] is listed as roughly 100 h.

In the case of O=S(=O)(NCCNCC=C(c1ccccc1)c1ccccc1)c1cccc2cnccc12 [NL-71-101], the IC50 (PKB) is given as 3.7 µM, the IC50 (PKA) is given as 9 µM and the IC50 (PKG) is given as 36 µM. For the same compound, the IC50 (PKC) was 104 µM and the “apoptosis in OVCAR-3 tumour cells, in which PKB is amplified” value (OVCAR-3 tumour cells) was “induced apoptosis”.

In the case of CCOC(=O)c1ccc2[nH]c3c(OC)c4[nH]c5ccc(C(=O)OCC)cc5c4cc3c2c1 [SR-13668], the “adverse effects in mice” value [3] is given as “no adverse effects” and the “inhibition of phospho-AKT” value [4] is given as “significantly inhibits”.

In the case of CC1=C(/C=C/C(C)=C/C=C/C(C)=C/C(=O)O)C(C)(C)CCC1 [Tretinoin, all-trans retinoic acid], the “remissions in APL patients” value [5] is given as 64-100%.
